This experiment relates to stomach mucosa. As to the kind of experiment: cytoprotective activity in rats (ethanol-induced stomach mucosa lesions). The experiment is classed as in vivo, Sprague-Dawley rats. As to conditions: for response vs control in vivo at 5 mg/kg / inhibition in vivo at 5 mg/kg: Rattus norvegicus, 1 h; for response vs control in vivo at 5 mg/kg / inhibition in vivo at 5 mg/kg / % Protection: 5 mg per kg oral, half hour before absolute ethanol 10 ml per kg oral; for response vs control in vivo at 5 mg/kg: average lesion length as % of control animals; for inhibition in vivo at 5 mg/kg: lesions vs control, read-out: LESIONS % reduction; for cytoprotective activity (in words): comparison of enantiomers and racemate, Table III; for % Protection: optically pure compounds of Example XIX. As for the experimental part: A number of the 7-oxa prostanoic acid derivatives has been tested for cytoprotective activity in rats. In this test, Sprague-Dawley rats are fasted for 24 hours prior to the pretreatment. The pretreatment is oral administration of a 5 mg per kg body weight dose of the prostanoid in 2.5 ml of a vehicle consisting of Tween 80 (0.75%) and the balance water. The control animals are given 2.5 ml of the vehicle, without prostanoid. A half hour after the pretreatment, absolute ethanol is administered orally to the animals, in a dose of 10 ml per kg body weight. One hour later the animals are sacrificed, their stomachs dissected out, opened along the greater curvature and the mucose examined for lesions. The average lesion length is expressed as percentage of the average lesion length found in the stomach mucosa of control animals.
Importantly, this test measures the active cytoprotective properties of the prostanoids, independent of the gastric secretion inhibition that these compounds may or may not show. The test is discussed more fully by Robert et al., Gastroenterology 77 (1979) 433, incorporated herein by reference.
methyl-7-oxa-9-oxo-Prostanoate derivatives were tested for cytoprotective properties. The compounds differed with respect to the nature of the C13 -C14 bond (triple, cis or trans double, or single), the substituent(s) at the 15-position and at the 16-position. […]
The optically pure compounds of Example XIX were tested for cytoprotective activity. The following results were obtained (Table III).

Setting [1] is: methyl-7-oxa-9-alpha-hydroxy prost-13,14-ynoate derivatives.
Where [2] appears, read: 7-oxa-9-oxo-methyl prostanoate derivatives.

Experimental findings from US4345984A, “Novel prostaglandin analogues and process for making same” (The Procter & Gamble Company, priority 1981, dated 1982) are described below.

Read-outs that look alike come from different tables or passages of the source.

Consider `CCCCC(C)(C)C(O)C#C[C@H]1CC[C@H](O)[C@@H]1OCCCCCC(=O)OC` (relative stereo), for which, under setting [1], the response vs control in vivo at 5 mg/kg turned out to be 83% and the inhibition in vivo at 5 mg/kg is 17%.
On to `CCCCCC(=O)C#C[C@H]1CC[C@H](O)[C@@H]1OCCCCCC(=O)O` (relative stereo), for which, under setting [1], the response vs control in vivo at 5 mg/kg turned out to be 7% and the inhibition in vivo at 5 mg/kg came to 93%.
Consider `CCCCCC(O)/C=C\[C@H]1CCC(=O)[C@@H]1OCCCCCC(=O)OC` (relative stereo) [cis (R,S)OH H,H (7-oxa-9-oxo), methyl-15-hydroxy-7-oxa-9-oxo-cis-prost-13-14-enoate], for which, under setting [2], the response vs control in vivo at 5 mg/kg was 31% and the inhibition in vivo at 5 mg/kg stood at 69%.
For `CCCCCC(C)(O)/C=C\[C@H]1CCC(=O)[C@@H]1OCCCCCC(=O)OC` (relative stereo) [cis (R,S)OH,Me H,H (7-oxa-9-oxo)], in that order: 71% and 29%.
Take `CCCCCC(=O)/C=C\[C@H]1CCC(=O)[C@@H]1OCCCCCC(=O)OC` (relative stereo) [cis oxo H,H (7-oxa-9-oxo), methyl-9,15-dioxo-7-oxa-cis-prost-13,14-enoate]: under setting [2], the response vs control in vivo at 5 mg/kg was determined as 113% and the inhibition in vivo at 5 mg/kg is -13%.
As for `CCCCCC(O)C#C[C@H]1CC[C@H](O)[C@@H]1OCCCCCC(=O)OC` (relative stereo) [methyl-9-alpha-hydroxy-15-hydroxy-7-oxa-Prost-13,14-ynoate], under setting [1], the response vs control in vivo at 5 mg/kg came out at 93% and the inhibition in vivo at 5 mg/kg amounted to 7%.
On to `CCCCCC(C)(O)CC[C@H]1CCC(=O)[C@@H]1OCCCCCC(=O)OC` (relative stereo) [single (R,S)OH,Me H,H (7-oxa-9-oxo)], for which, under setting [2], the response vs control in vivo at 5 mg/kg came out at 67% and the inhibition in vivo at 5 mg/kg stood at 33%.
For `CCCCCC(=O)CC[C@H]1CCC(=O)[C@@H]1OCCCCCC(=O)OC` (relative stereo) [single oxo H,H (7-oxa-9-oxo)], under setting [2], the response vs control in vivo at 5 mg/kg came to 128% and the inhibition in vivo at 5 mg/kg was -28%.
In the same order, the values of `CCCCCC(C)(O)/C=C/[C@H]1CCC(=O)[C@@H]1OCCCCCC(=O)OC` (relative stereo) [trans (R,S)OH,Me H,H (7-oxa-9-oxo)] are 54% and 46%.
`CCCCCC(=O)/C=C/[C@H]1CCC(=O)[C@@H]1OCCCCCC(=O)OC` (relative stereo) [trans oxo H,H (7-oxa-9-oxo)]: under setting [2], the response vs control in vivo at 5 mg/kg is 118% and the inhibition in vivo at 5 mg/kg is -18%.
Take `CCCCCC(O)C#C[C@H]1CCC(=O)[C@@H]1OCCCCCC(=O)OC` (relative stereo) [triple (R,S)OH H,H (7-oxa-9-oxo), methyl 15-hydroxy-7-oxa-9-oxo-prost-13,14-ynoate]: under setting [2], the response vs control in vivo at 5 mg/kg is 31% and the inhibition in vivo at 5 mg/kg is 69%.
In the case of `CCCCCC(C)(O)C#C[C@H]1CCC(=O)[C@@H]1OCCCCCC(=O)OC` (relative stereo) [triple (R,S)OH,Me H,H (7-oxa-9-oxo)], under setting [2], the response vs control in vivo at 5 mg/kg was determined as 82% and the inhibition in vivo at 5 mg/kg is 18%.
As for `CCCCCCC#C[C@H]1CC[C@H](O)[C@@H]1OCCCCCC(=O)OC` (relative stereo) [triple H,H H,H (7-oxa-9-alpha-hydroxy)], under setting [1], the response vs control in vivo at 5 mg/kg was found to be 90% and the inhibition in vivo at 5 mg/kg was 10%.
As to `CCCCCCC#C[C@H]1CCC(=O)[C@@H]1OCCCCCC(=O)OC` (relative stereo) [triple H,H H,H (7-oxa-9-oxo)], under setting [2], the response vs control in vivo at 5 mg/kg was found to be 81% and the inhibition in vivo at 5 mg/kg amounted to 19%.
Regarding `CCCCCC(=O)C#C[C@H]1CC[C@H](O)[C@@H]1OCCCCCC(=O)OC` (relative stereo) [triple oxo H,H (7-oxa-9-alpha-hydroxy), methyl 9-alpha-hydroxy-7-oxa-15-oxo-prost-13,14-ynoate], under setting [1], the response vs control in vivo at 5 mg/kg came to 20% and the inhibition in vivo at 5 mg/kg was determined as 80%.
Regarding `CCCCCC(=O)C#C[C@H]1CCC(=O)[C@@H]1OCCCCCC(=O)OC` (relative stereo) [triple oxo H,H (7-oxa-9-oxo), methyl-9,15-dioxo-7-oxa-prost-13,14-ynoate], the “cytoprotective activity (in words)” value is given as “the same”. For the same molecule, under setting [2], the response vs control in vivo at 5 mg/kg is 4% and the inhibition in vivo at 5 mg/kg was 96%.
`CCCCC(C)(C)C(=O)C#C[C@H]1CCC(=O)[C@@H]1OCCCCCC(=O)OC` (relative stereo) [triple oxo Me,Me (7-oxa-9-oxo)]: under setting [2], the response vs control in vivo at 5 mg/kg came to 16% and the inhibition in vivo at 5 mg/kg came to 84%.
Turning to `CCCCC[C@H](O)C#CC1CCC(=O)C1OCCCCCC(=O)OC` (stereo partly drawn) [(18), methyl-(S)-15-hydroxy-7-oxa-9-oxo-prost-13,14-ynoate], the “cytoprotective activity (in words)” value was “high cytoprotective activity” and the “% Protection” value is recorded as 96%.
Regarding `CCCCC[C@@H](O)C#CC1CCC(=O)C1OCCCCCC(=O)OC` (stereo partly drawn) [(19), methyl-(R)-15-hydroxy-7-oxa-9-oxo-prost-13,14-ynoate], the “% Protection” value is on record as -34%.
